# Results as given in patent publication US6737383B1, “Herbicidal oxadiazolidines” (priority 1999, dated 2004).
# Columns and labels:
# blackgrass [1] = assay: Test B pre/postemergence blackgrass; format: in vivo, Alopecurus myosuroides
# Outline: (§1)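 Test chemicals in a non-phytotoxic solvent mixture with surfactant were sprayed preemergence onto planted seeds and postemergence onto plants 2 to 18 cm tall (1- to 4-leaf stage). After twelve to sixteen days in a greenhouse, injury was visually rated against untreated controls from 0 (no effect) to 10 (complete control).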
# crabgrass = assay: Test B pre/postemergence crabgrass; format: in vivo, Digitaria sanguinalis
# Outline: as §1
# morningglory = assay: Test B pre/postemergence morningglory; format: in vivo, Ipomoea hederacea
# Outline: as §1
# bamyardgrass = assay: Test B flood test barnyardgrass; format: in vivo, Echinochloa crus-galli
# Outline: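 Plants were grown to the 2-leaf stage before treatment with test chemical, then held in a greenhouse for twelve to sixteen days. Injury was visually rated against untreated controls on a 0–10 scale, where 0 is no effect and 10 is complete control.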
# winter wheat [2] = assay: Test E winter wheat; format: in vivo, Triticum aestivum; conditions: Postemergence
# Outline: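 For postemergence, sowings are timed so plants reach the 1- to 4-leaf stage at spraying. Test compound is applied in a surfactant-containing solvent mixture that is non-phytotoxic. Response is judged by eye against untreated controls after approximately 21 to 28 days.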
# blackgrass [3] = assay: Test E blackgrass; format: in vivo, Alopecurus myosuroides; conditions: Preemergence
# green foxtail = assay: Test E green foxtail; format: in vivo, Setaria viridis; conditions: Preemergence
# Italian ryegrass = assay: Test E Italian ryegrass; format: in vivo, Lolium multiflorum; conditions: Preemergence
# winter wheat [4] = assay: Test E winter wheat; format: in vivo, Triticum aestivum; conditions: Preemergence
# wild oat = assay: Test E wild oat; format: in vivo, Avena fatua; conditions: Preemergence
# winter barley = assay: Test E winter barley; format: in vivo, Hordeum vulgare; conditions: Preemergence
# [5] = Postemergence, Rate 62 g/ha, scale 0 to 10, 0 is no effect, 10 is complete control
# [6] = Postemergence, Rate 125 g/ha, scale of 0 to 10 where 0 is no effect and 10 is complete control
# [7] = Postemergence, Rate 250 g/ha, scale 0 to 10, 0 no effect, 10 complete control
# [8] = Preemergence, Rate 31 g/ha, visual rating, scale 0 to 10 (0 no effect, 10 complete control)
# [9] = Preemergence, Rate 62 g/ha, scale 0 to 10 (0 no effect, 10 complete control)
# [10] = Preemergence, Rate 125 g/ha, scale 0 to 10 (0 no effect, 10 complete control)
# [11] = Preemergence, Rate 250 g/ha, scale of 0 to 10 where 0 is no effect and 10 is complete control
# [12] = Rate 31 g/ha, Postemergence, scale 0 to 10
# [13] = Rate 125 g/ha, Postemergence section (flood test species), scale 0 to 10, 0 no effect, 10 complete control
# [14] = flood test, listed under Postemergence, Rate 250 g/ha, scale 0 to 10, 0 no effect, 10 complete control
# [15] = Rate 250 g/ha, 0 to 100 scale (0 no effect, 100 complete control)
# [16] = Rate 500 g/ha, 0 to 100 scale, 0 no effect, 100 complete control
# [17] = Rate 125 g/ha, 0 to 100 scale (0 no effect, 100 complete control)
# [18] = Rate 500 g/ha, 0 to 100 scale where 0 is no effect and 100 is complete control
# [19] = Preemergence, Rate 500 g/ha, scale 0 to 10 (0 no effect, 10 complete control)
# [20] = Rate 62 g/ha, Postemergence, scale of 0 to 10 where 0 is no effect and 10 is complete control
# [21] = Rate 500 g/ha, Postemergence, scale 0 to 10, 0 no effect, 10 complete control
# [22] = Rate 62 g/ha, 0 to 100 scale, 0 no effect, 100 complete control
# [23] = Preemergence, Rate 62 g/ha, scale of 0 to 10 where 0 is no effect and 10 is complete control
# [24] = Preemergence, Rate 250 g/ha, scale 0 to 10, 0 is no effect, 10 is complete control
# [25] = Rate 250 g/ha, Postemergence, scale 0 to 10, 0 is no effect, 10 is complete control
# [26] = Rate 500 g/ha, Postemergence, scale 0 to 10
# [27] = Preemergence, Rate 125 g/ha, 0 is no effect, 10 is complete control
# [28] = Rate 1000 g/ha, 0 to 100 scale where 0 is no effect and 100 is complete control
smiles,measurement,setting,value
CC(C)N(C(=O)n1oc(=O)n(-c2cnn(C)c2)c1=O)c1ccc(F)cc1 [Compound 98],Blackgrass plant response rating,blackgrass [1]; [5],0
same,Blackgrass plant response rating,blackgrass [1]; [6],0
same,Blackgrass plant response rating,blackgrass [1]; [7],0
same,Blackgrass plant response rating,blackgrass [1]; [8],0
same,Blackgrass plant response rating,blackgrass [1]; [9],2
same,"Plant response rating, Blackgrass",blackgrass [1]; [10],6
same,"Plant response rating, Blackgrass",blackgrass [1]; [11],8
same,Blackgrass plant response rating,blackgrass [1]; [12],0
same,Crabgrass plant response rating,crabgrass; [5],0
same,Crabgrass plant response rating,crabgrass; [6],0
same,Crabgrass plant response rating,crabgrass; [7],2
same,Crabgrass plant response rating,crabgrass; [8],2
same,Crabgrass plant response rating,crabgrass; [9],4
same,"Plant response rating, Crabgrass",crabgrass; [10],7
same,"Plant response rating, Crabgrass",crabgrass; [11],8
same,Crabgrass plant response rating,crabgrass; [12],0
same,Morningglory plant response rating,morningglory; [5],0
same,Morningglory plant response rating,morningglory; [6],0
same,Morningglory plant response rating,morningglory; [7],2
same,Morningglory plant response rating,morningglory; [8],0
same,Morningglory plant response rating,morningglory; [9],0
same,"Plant response rating, Morningglory",morningglory; [10],0
same,"Plant response rating, Morningglory",morningglory; [11],0
same,Morningglory plant response rating,morningglory; [12],0
same,Barnyardgrass plant response rating,bamyardgrass; [5],5
same,Barnyardgrass plant response rating,"bamyardgrass; Rate 31 g/ha, Postemergence section (flood test species), scale 0 to 10",3
same,Barnyardgrass plant response rating,bamyardgrass; [13],9
same,Barnyardgrass plant response rating,bamyardgrass; [14],9
same,"Plant response rating, Wheat (winter)","winter wheat [2]; Rate 125 g/ha, 0 to 100 scale",30
same,"Plant response rating, Wheat (winter)",winter wheat [2]; [15],50
same,"Plant response rating, Wheat (winter)",winter wheat [2]; [16],55
same,"Plant response rating, Blackgrass",blackgrass [3]; [17],30
same,"Plant response rating, Blackgrass","blackgrass [3]; Rate 250 g/ha, 0 to 100 scale",20
same,"Plant response rating, Blackgrass",blackgrass [3]; [18],55
same,"Plant response rating, Green foxtail",green foxtail; [17],60
same,"Plant response rating, Green foxtail","green foxtail; Rate 250 g/ha, 0 to 100 scale",60
same,"Plant response rating, Green foxtail",green foxtail; [18],65
same,"Plant response rating, I. Ryegrass",Italian ryegrass; [17],50
same,"Plant response rating, I. Ryegrass","Italian ryegrass; Rate 250 g/ha, 0 to 100 scale",50
same,"Plant response rating, I. Ryegrass",Italian ryegrass; [18],60
same,"Plant response rating, Wheat (winter)",winter wheat [4]; [17],30
same,"Plant response rating, Wheat (winter)","winter wheat [4]; Rate 250 g/ha, 0 to 100 scale",40
same,"Plant response rating, Wheat (winter)",winter wheat [4]; [18],40
same,"Plant response rating, Wild oat",wild oat; [17],50
same,"Plant response rating, Wild oat",wild oat; [18],50
same,"Plant response rating, Barley (winter)",winter barley; [17],20
same,"Plant response rating, Barley (winter)","winter barley; Rate 250 g/ha, 0 to 100 scale",10
same,"Plant response rating, Barley (winter)",winter barley; [18],30
CCn1c(=O)on(C(=O)N(c2ccc(F)cc2F)C(C)C)c1=O [Compound 116],Blackgrass plant response rating,blackgrass [1]; [6],9
same,Blackgrass plant response rating,blackgrass [1]; [7],9
same,Blackgrass plant response rating,blackgrass [1]; [9],9
same,"Plant response rating, Blackgrass",blackgrass [1]; [10],9
same,"Plant response rating, Blackgrass",blackgrass [1]; [11],10
same,Blackgrass plant response rating,blackgrass [1]; [19],10
same,Blackgrass plant response rating,blackgrass [1]; [20],9
same,Blackgrass plant response rating,blackgrass [1]; [21],9
same,Crabgrass plant response rating,crabgrass; [6],9
same,Crabgrass plant response rating,crabgrass; [7],9
same,Crabgrass plant response rating,crabgrass; [9],8
same,"Plant response rating, Crabgrass",crabgrass; [10],10
same,"Plant response rating, Crabgrass",crabgrass; [11],10
same,Crabgrass plant response rating,crabgrass; [19],10
same,Crabgrass plant response rating,crabgrass; [20],9
same,Crabgrass plant response rating,crabgrass; [21],9
same,Morningglory plant response rating,morningglory; [6],4
same,Morningglory plant response rating,morningglory; [7],4
same,Morningglory plant response rating,morningglory; [9],0
same,"Plant response rating, Morningglory",morningglory; [10],0
same,"Plant response rating, Morningglory",morningglory; [11],4
same,Morningglory plant response rating,morningglory; [19],8
same,Morningglory plant response rating,morningglory; [20],2
same,Morningglory plant response rating,morningglory; [21],7
same,Barnyardgrass plant response rating,bamyardgrass; [5],0
same,Barnyardgrass plant response rating,bamyardgrass; [13],0
same,Barnyardgrass plant response rating,"bamyardgrass; Rate 250 g/ha, headed Pre-emergence (flood test species), scale 0 to 10 (0 no effect, 10 complete control)",0
same,"Plant response rating, Barnyardgrass","bamyardgrass; Rate 500 g/ha, headed Pre-emergence (flood test species), scale 0 to 10 (0 no effect, 10 complete control)",0
same,Barnyardgrass plant response rating,"bamyardgrass; Rate 500 g/ha, listed under Postemergence (flood test species), scale 0 to 10, 0 no effect, 10 complete control",4
same,Barnyardgrass plant response rating,"bamyardgrass; Rate 1000 g/ha, Pre-emergence (as headed), scale 0 to 10",0
same,Barnyardgrass plant response rating,"bamyardgrass; Rate 2000 g/ha, Pre-emergence (as headed), scale 0 to 10, 0 no effect, 10 complete control",9
same,Barnyardgrass plant response rating,bamyardgrass; [14],0
same,"Plant response rating, Wheat (winter)","winter wheat [2]; Rate 62 g/ha, 0 to 100 scale",20
same,"Plant response rating, Wheat (winter)","winter wheat [2]; Rate 125 g/ha, 0 to 100 scale",10
same,"Plant response rating, Wheat (winter)",winter wheat [2]; [15],45
same,"Plant response rating, Wheat (winter)",winter wheat [2]; [16],10
same,"Plant response rating, Blackgrass",blackgrass [3]; [22],40
same,"Plant response rating, Blackgrass",blackgrass [3]; [17],50
same,"Plant response rating, Blackgrass","blackgrass [3]; Rate 250 g/ha, 0 to 100 scale",45
same,"Plant response rating, Blackgrass",blackgrass [3]; [18],100
same,"Plant response rating, Green foxtail",green foxtail; [22],65
same,"Plant response rating, Green foxtail",green foxtail; [17],50
same,"Plant response rating, Green foxtail","green foxtail; Rate 250 g/ha, 0 to 100 scale",100
same,"Plant response rating, I. Ryegrass",Italian ryegrass; [22],50
same,"Plant response rating, I. Ryegrass",Italian ryegrass; [17],30
same,"Plant response rating, I. Ryegrass","Italian ryegrass; Rate 250 g/ha, 0 to 100 scale",60
same,"Plant response rating, I. Ryegrass",Italian ryegrass; [18],100
same,"Plant response rating, Wheat (winter)",winter wheat [4]; [22],30
same,"Plant response rating, Wheat (winter)",winter wheat [4]; [17],55
same,"Plant response rating, Wheat (winter)","winter wheat [4]; Rate 250 g/ha, 0 to 100 scale",30
same,"Plant response rating, Wheat (winter)",winter wheat [4]; [18],100
same,"Plant response rating, Wild oat",wild oat; [22],20
same,"Plant response rating, Wild oat",wild oat; [17],30
same,"Plant response rating, Wild oat",wild oat; [18],80
same,"Plant response rating, Barley (winter)",winter barley; [22],10
same,"Plant response rating, Barley (winter)",winter barley; [17],30
same,"Plant response rating, Barley (winter)","winter barley; Rate 250 g/ha, 0 to 100 scale",70
same,"Plant response rating, Barley (winter)",winter barley; [18],80
CC1CCCCC1n1c(=O)on(C(=O)N(c2ccc(F)cc2)C(C)C)c1=O (stereo not drawn) [Compound 161],Blackgrass plant response rating,blackgrass [1]; [6],0
same,Blackgrass plant response rating,blackgrass [1]; [23],3
same,Blackgrass plant response rating,blackgrass [1]; [24],7
same,Blackgrass plant response rating,blackgrass [1]; [19],9
same,Blackgrass plant response rating,blackgrass [1]; [20],0
same,"Plant response rating, Blackgrass",blackgrass [1]; [25],3
same,Blackgrass plant response rating,blackgrass [1]; [26],4
same,Crabgrass plant response rating,crabgrass; [6],2
same,Crabgrass plant response rating,crabgrass; [23],4
same,Crabgrass plant response rating (0 to 10 scale),crabgrass; [27],8
same,Crabgrass plant response rating,crabgrass; [24],9
same,Crabgrass plant response rating,crabgrass; [19],9
same,Crabgrass plant response rating,crabgrass; [20],0
same,"Plant response rating, Crabgrass",crabgrass; [25],7
same,Crabgrass plant response rating,crabgrass; [26],9
same,Morningglory plant response rating,morningglory; [6],5
same,Morningglory plant response rating,morningglory; [23],0
same,Morningglory plant response rating (0 to 10 scale),morningglory; [27],0
same,Morningglory plant response rating,morningglory; [24],0
same,Morningglory plant response rating,morningglory; [19],0
same,Morningglory plant response rating,morningglory; [20],4
same,"Plant response rating, Morningglory",morningglory; [25],7
same,Morningglory plant response rating,morningglory; [26],10
same,"Plant response rating, Wheat (winter)","winter wheat [2]; Rate 1000 g/ha, 0 to 100 scale, 0 is no effect and 100 is complete control",50
same,"Plant response rating, Wheat (winter)",winter wheat [2]; [16],35
same,Wheat (winter) plant response rating,"winter wheat [2]; Rate 250 g/ha, 0 to 100 scale where 0 is no effect and 100 is complete control",30
same,Blackgrass plant response rating (0 to 100 scale),blackgrass [3]; Rate 250 g/ha,30
same,"Plant response rating, Blackgrass",blackgrass [3]; [18],50
same,"Plant response rating, Blackgrass",blackgrass [3]; [28],55
same,Green foxtail plant response rating (0 to 100 scale),green foxtail; Rate 250 g/ha,60
same,"Plant response rating, Green foxtail",green foxtail; [18],70
same,"Plant response rating, Green foxtail",green foxtail; [28],90
same,I. Ryegrass plant response rating (0 to 100 scale),Italian ryegrass; Rate 250 g/ha,60
same,"Plant response rating, I. Ryegrass",Italian ryegrass; [18],65
same,"Plant response rating, I. Ryegrass",Italian ryegrass; [28],85
same,Wheat (winter) plant response rating (0 to 100 scale),winter wheat [4]; Rate 250 g/ha,10
same,"Plant response rating, Wheat (winter)",winter wheat [4]; [18],20
same,"Plant response rating, Wheat (winter)",winter wheat [4]; [28],45
same,Wild oat plant response rating (0 to 100 scale),wild oat; Rate 250 g/ha,50
same,"Plant response rating, Wild oat",wild oat; [18],50
same,"Plant response rating, Wild oat",wild oat; [28],60
same,Barley (winter) plant response rating (0 to 100 scale),winter barley; Rate 250 g/ha,30
same,"Plant response rating, Barley (winter)",winter barley; [18],40
same,"Plant response rating, Barley (winter)",winter barley; [28],40
